We go through 22 compounds from patent publication US7250397B2, “Antiarrhythmic peptides” (Zealand Pharma A/S, priority 2000, dated 2007).

[ ]: non-standard residue; d: D form. The star is where a group is joined. Hyp = O=C(O)[C@@H]1C[C@@H](O)CN1; dHyp = O=C(O)[C@H]1C[C@H](O)CN1; T4C = not defined here; Acm = CC(=O)NC*; Sar = CNCC(=O)O

Experiment [1] relates to calcium-induced arrythmias. Put plainly: Calcium-induced arrhythmia model in mice. Format: in vivo. Particulars: maximal effect; i.v.; time until 2nd degree AV-block during CaCl2 infusion relative to vehicle treated mice. How it is done: The antiarrhythmic effects of compounds of this invention were tested in an in vivo model of calcium-induced arrythmias according to the model of Lynch et al.^[37]. […]. Commercial solutions of hypnorm and midazolam were diluted 1:1 in distilled water and one part diluted Hypnorm® is mixed with one part diluted midazolam.
The anaesthesia was induced by s.c. administration in a dose of 0.05-0.075 μl/10 gram mouse. An i.v cannula was inserted into the tail vein. The lead II ECG signal was recorded continuously by positioning of a stainless steel ECG electrodes on the right forelimb and on the left hind limb. The ground electrode was placed on the right hind limb. The signal was amplified (x 5.000-10.000) and filtered (0.1-150 Hz) via a Hugo Sachs Electronic model 689 ECG module. The analogue signal was digitised via a 12 bit data acquisition board (Data Translation model DT321) and sampled at 1000 Hz using the Notocord HEM 3.1 software for Windows NT. After a 10-min equilibration period, the test sample of drug was injected into the tail vein. Mice pre-treated with vehicle were tested as a measure of the control level in untreated animals. The injection volume was 100 μl in all experiments. Infusion of CaCl2 (30 mg/ml, 0.1 ml/min≈100 mg/kg/min (calciumchlorid-2-hydrat, Riedel-de Häen, Germany)) was started 3 min after i.v. administration of drug or vehicle. The time lag to onset of 2nd degree AV-block was determined as the time from the start of CaCl2 infusion until the first arrhythmic event occured. An event of 2nd degree AV-block was defined as intermittent failure of the AV conduction characterised by a P-wave without the concomitant QRS complex.
Responses were expressed relative to the time until 2nd degree AV-block occurred in vehicle treated mice.

The test system of experiment [2] is phospho-inositol turnover in neonatal rat cardiomyocytes. The experiment in a line: Phosphoinositol turnover in rat primary cardiomyocytes. Format: cell-based. The settings on record: for EC50: Rattus norvegicus, Cardiomyocyte. How it is done:
Neonatal Wistar rats (1-2 days old) are used. Hank's calcium- and magnesium-free balanced salt solution, buffered with 10 mM HEPES is used for washing during cell separation procedures. The hearts are excised, the ventricles isolated and the tissue cut into small pieces. The myocardial cells are isolated by stepwise enzymatic degradation with collagenase 0.05%, as described by^[35]. After repeated rounds of centrifugation and washing, the precipitated cells are resuspended in culture medium M199 with Earle's salt, 10% NCS, penicillin (75 U/mL), and streptomycin (75 U/mL) and pre-plated in a Petri dish for 90 minutes. The non-adherent cells are collected in the culture medium and plated in multidishes at 2.5*10^5 cells/well. The cultures are kept in a water-saturated CO2-incubator at 37° C. The cardiomyocyte cultures are used for analyses after 6-7 days.
Cardiomyocyte cultures are incubated for 48 hours in culture medium containing […] myo-[2-^3H]inositol to label the inositol phospholipids. On the day of analysis the medium is replaced by a buffer solution containing lithium and incubated at 37° C., as described by Meier et al.^[36]. After at least five minutes this buffer is replaced by the same volume of buffer containing test compound and incubated for exactly 20 minutes. The reaction is stopped by rapid replacement of the buffer by ice cold 4% v/v perchloric acid (PCA) and incubation for at least 20 minutes at 0° C. The PCA-extract is neutralised and the [^3H]inositol phosphates are separated by anion-exchange chromatography using Amprep™ columns containing 100 mg SAX Quaternary amine. The [^3H]inositol mono-phosphates are eluted and radioactivity in the fraction measured by liquid scintillation counting.
Before adding test substances to the cultures, the cells are depleted of glucose and oxygen by incubating them in a N2-atmosphere in glucose-free lithium-buffer for 10 minutes at 37° C. Control cells are incubated likewise only at normal atmospheric conditions and in a buffer containing glucose.

In experiment [3] the test system is CHO cells. The experiment in a line: In situ binding of [125I]AAP10 on intact CHO cells. The settings on record: overnight at 4° C. As to the method: CHO cells are seeded in 24-multi well dishes in a density of 7,900 cells/cm^2 (˜15,000 cells/well) and grown for 3 Days In Vitro (DIV) in 1 ml/well of F-12K Nutrient Mixture supplemented with […] (FCS) and 1000 units penicillin/1000 μg streptomycin (pen/strep) in an atmosphere of 5% CO2 and 100% humidity at 37° C. The cell density has at that time increased to 295,000 cells/cm^2 (152 pgprot/cell˜85 μgprot/well).
On the day of analysis cells are removed from the incubator and each well is washed twice with, depending on the experiment, either 2 ml pre-warmed (37° C.) or ice-cold (0° C.) D-PBS to remove serum. It is important to keep the period to a minimum during which cells are left without physiological solutions to avoid that they dry out during washing procedures. The cold washed cells are used directly for binding assays while the warm washed cells are used for experiments with glucose and oxygen deprivation.
Cells are incubated for 10 min in an N2-atmosphere in glucose free D-PBS (pH 7.2) pre-equilibrated with N2 for at least 10 min at 37° C. Control cells are incubated likewise for 10 min at 37° C., only, at normal atmospheric conditions and in D-PBS containing glucose (6 mM). […]
0.25 ml of 0.5% Triton-X-100 (v/v) is added to each well and cells left for at least 1 h to solubilize. […] The vials are counted in a γ-counter.

Experiment [4] has as its system guinea pig papillary muscle. Particulars: 1 μM; normoxic conditions; cited from earlier work.
In experiment [5] the test system is membranes from rabbit heart. Particulars: read-out: value given for AAP10 by Dhein et al.; cited from earlier work.

For the compound “3-(4-hydroxyphenyl)propionyl-Pro-Hyp-Gly-Ala-Gly-OH [Compound CE3, reference compound]”, the In vivo activity result in experiment [1] is on record as “++ (30-50% increase in time until arrhythmia)”.
Take `NC[C@H](O)c1ccc(O)c(O)c1` [Noradrenaline]: the EC50 amounted to 303 nM in experiment [2] (atmosphere of N2 and depleted of glucose); 203 nM in experiment [2] (normal atmospheric and nutritional conditions).
Regarding “ASAL(mono-iodo)-Pro-Hyp-Gly-Ala-Gly-NH2 [Compound 32]”, in experiment [1], the In vivo activity result was “+++ (>60% increase in time until arrhythmia)”. In experiment [3], this compound registered an IC50 of 0.5 nM.
Regarding “Ac-D-Tyr(3,5-di-I)-D-Pro-D-Hyp-Gly-D-Ala-Gly-NH2 [Compound 24]”, the IC50 in experiment [3] was determined as 65 nM.
Regarding Ac-Gly-Asn-Tyr-NH2 [Compound 40], the In vivo activity result in experiment [1] is recorded as “++ (30-50% increase in time until arrhythmia)”.
Same read-out and setting: to “Ac-Tyr-Pro-4Hyp-Gly-Ala-Gly-OH (Ac-YP[Hyp]GAG-OH; SMILES CC(=O)N[C@@H](Cc1ccc(O)cc1)C(=O)N1CCC[C@H]1C(=O)N1C[C@H](O)C[C@H]1C(=O)NCC(=O)N[C@@H](C)C(=O)NCC(=O)O) [Compound 1]” belongs “+ (15-29% increase in time until arrhythmia)”; to “Cyclo(Tyr-Pro-4Hyp-Gly-Ala-Gly-Asn) [Compound 3]”, “+++ (>60% increase in time until arrhythmia)”.
Still for that read-out and setting: to “H-C(Acm)GAG[Hyp]PYC(Acm)-NH2 [Compound 16]” belongs “+ (15-29% increase in time until arrhythmia)”.
As for H-GAG[Hyp]PY-NH2 [Compound CE2], the In vivo activity result in experiment [1] is recorded as “+++ (>60% increase in time until arrhythmia)”. For the same compound, the “EC50 relative to the EC50 of Compound 2” value in experiment [2] (during normoxia) was found to be 200 fold; in experiment [2] (metabolic stress induced by anoxia and glucose deprivation), 10 fold. Also, in experiment [4], the decrease of stimulus-response-interval result is reported as “about 10%”. Further, the IC50 in experiment [5] was 0.2 nM.
On to H-GAG[dHyp]AY-NH2 [Compound 9], for which the In vivo activity entry in experiment [1] is recorded as “+ (15-29% increase in time until arrhythmia)”.
As for H-GAG[dHyp]PY-NH2 [Compound 5], the In vivo activity result in experiment [1] was “++ (30-50% increase in time until arrhythmia)”.
Turning to H-GAG[dHyp][dP]Y-NH2 [Compound 10], the In vivo activity entry in experiment [1] is “+++ (>60% increase in time until arrhythmia)”.
On the same count and under the same terms, the entry for “H-GP[Hyp]GAG-OH [Compound CE1, reference compound]” is “++ (30-50% increase in time until arrhythmia)”; for “H-Gly-Ala-Gly-Asn-Tyr-NH2 (H-GAGNY-NH2) [Compound 39]” it is “+++ (>60% increase in time until arrhythmia)”.
On the same count and under the same terms, to “H-Gly-Ala-Gly-PC-Pro-Tyr-NH2 (GAGPY; PC residue; C-terminal amide; Description of Artificial Sequence: Synthetic antiarrythmic peptide; PC between positions 3 and 4) [Compound 14]” belongs “+ (15-29% increase in time until arrhythmia)”; to “H-Gly-Ala-Gly-T4C-Pro-Tyr-NH2 (H-GAG[T4C]PY-NH2; reading uncertain; also: printed as H-Gly-Ala-Gly-T4C-Pro-Tyr-NH2) [Compound 12]”, “++ (30-50% increase in time until arrhythmia)”.
The same measure, in the same setting: to “H-Gly-Ala-Sar-Hyp-Pro-Tyr-NH2 (H-GA[Sar][Hyp]PY-NH2; SMILES C[C@H](NC(=O)CN)C(=O)N(C)CC(=O)N1C[C@H](O)C[C@H]1C(=O)N1CCC[C@H]1C(=O)N[C@@H](Cc1ccc(O)cc1)C(N)=O) [Compound 30]” belongs “++ (30-50% increase in time until arrhythmia)”.
On to H-Gly-Asn-Tyr-NH2 [Compound 41], for which, in experiment [1], the In vivo activity result is “++ (30-50% increase in time until arrhythmia)”.
Same read-out and setting: the entry for “H-Hyp-Pro-Tyr-Asn-Gly-Ala-Gly-NH2 (H-[Hyp]PYNGAG-NH2; SMILES C[C@H](NC(=O)CNC(=O)[C@H](CC(N)=O)NC(=O)[C@H](Cc1ccc(O)cc1)NC(=O)[C@@H]1CCCN1C(=O)[C@@H]1C[C@@H](O)CN1)C(=O)NCC(N)=O) [Compound 28]” is “(+) (≦15% increase in time until arrythmia)”.
With H-[Sar]A[Sar][Hyp]PY-NH2 [Compound 29], the In vivo activity result in experiment [1] is given as “+ (15-29% increase in time until arrhythmia)”.
The same measure, in the same setting: to “cyclo(-Gly-Ala-Gly-Hyp-Pro-Tyr-Asn-) (cyclo(GAG[Hyp]PYN)) [Compound 36]” belongs “+++ (>60% increase in time until arrhythmia)”; to “cyclo(-Gly-Ala-Gly-Hyp-Pro-Tyr-Gln-) (cyclo(GAG[Hyp]PYQ); SMILES C[C@@H]1NC(=O)CNC(=O)[C@H](CCC(N)=O)NC(=O)[C@H](Cc2ccc(O)cc2)NC(=O)[C@@H]2CCCN2C(=O)[C@@H]2C[C@@H](O)CN2C(=O)CNC1=O) [Compound 35]”, “++ (30-50% increase in time until arrhythmia)”.
